In PubChem BioAssay (NCI):
In brackets after ≈: the same amount, converted by molar mass.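 96-well plates; 48 h exposure; 5 concentrations. Endpoints by linear interpolation between flanking doses. Not reached: highest tested concentration assigned. GI50: concentration for 50% inhibition of growth. At the TGI there is no net growth.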 Where a SMILES comes first, the peptide text is derived from it. The star is where a group is joined. OBn = c1ccc(CO*)cc1

Tests used:
Assay in all cases: NCI-60 cell line screen, 48 h
[1] = test system: ACHN renal
[2] = test system: HCT-15 colon
[3] = test system: MOLT-4 leukemia
[4] = test system: RXF 393 renal
[5] = test system: T-47D breast
[6] = test system: NCI/ADR-RES ovarian
[7] = test system: SR leukemia
[8] = test system: A498 renal
[9] = test system: HCC-2998 colon
[10] = test system: LOX IMVI melanoma
[11] = test system: MALME-3M melanoma
[12] = test system: SNB-75 CNS
[13] = test system: PC-3 prostate
[14] = test system: HL-60(TB) leukemia
[15] = test system: MDA-MB-231 breast
[16] = test system: UACC-257 melanoma
[17] = test system: CCRF-CEM leukemia
[18] = test system: SK-MEL-5 melanoma
[19] = test system: M14 melanoma
[20] = test system: SK-OV-3 ovarian
[21] = test system: UACC-62 melanoma
[22] = test system: HOP-92 NSCLC
[23] = test system: BT-549 breast
[24] = test system: OVCAR-3 ovarian
[25] = test system: RPMI-8226 leukemia
[26] = test system: SF-539 CNS
[27] = test system: OVCAR-8 ovarian
[28] = test system: HOP-62 NSCLC
[29] = test system: SF-268 CNS
[30] = test system: HT29 colon
[31] = test system: K-562 leukemia
[32] = test system: NCI-H226 lung
[33] = test system: SF-295 CNS
[34] = test system: NCI-H460 lung
[35] = test system: SNB-19 CNS
[36] = test system: IGROV1 ovarian
[37] = test system: SW-620 colon
[38] = test system: KM12 colon
[39] = test system: EKVX NSCLC
[40] = test system: DU-145 prostate
[41] = test system: OVCAR-5 ovarian
[42] = test system: HS 578T breast
[43] = test system: MDA-MB-435
[44] = test system: U251 CNS
[45] = test system: A549 NSCLC
[46] = test system: HCT-116 colon
[47] = test system: 786-0 renal
[48] = test system: OVCAR-4 ovarian
[49] = test system: COLO 205 colon
[50] = test system: SN12C renal
[51] = test system: SK-MEL-28 melanoma
[52] = test system: TK-10 renal
[53] = test system: CAKI-1 renal
[54] = test system: UO-31 renal
[55] = test system: MCF7 breast
[56] = test system: NCI-H522 lung
[57] = test system: SK-MEL-2 melanoma
[58] = test system: NCI-H23 lung
[59] = test system: MDA-N

COc1ccc(-c2nn(-c3cccc(Cl)c3)cc2-c2c(C#N)c(=O)n3[nH]c(-c4ccc(C)cc4)nc3c2C#N)cc1
GI50 [1]: 2.41 µM
TGI [1]: 12.6 µM
GI50 [2]: 9.95 µM
TGI [2]: > 50 µM
GI50 [3]: 0.752 µM
TGI [3]: 5.46 µM
GI50 [4]: 0.858 µM
TGI [4]: 2.48 µM
GI50 [5]: 5.15 µM
TGI [5]: 12.1 µM
GI50 [6]: 9.43 µM
TGI [6]: 37.5 µM
GI50 [7]: 1.43 µM
TGI [7]: 10.1 µM
GI50 [8]: 0.575 µM
TGI [8]: 7.63 µM
GI50 [9]: 5.04 µM
TGI [9]: 10.8 µM
GI50 [10]: 2.44 µM
TGI [10]: 17.1 µM
GI50 [11]: 2.16 µM
TGI [11]: 9.12 µM
GI50 [12]: 0.828 µM
TGI [12]: 2.4 µM
GI50 [13]: 1.7 µM
TGI [13]: 9.26 µM
GI50 [14]: 8.33 µM
TGI [14]: 29.6 µM
GI50 [15]: 1.16 µM
TGI [15]: 5.25 µM
GI50 [16]: 6.68 µM
TGI [16]: 16.7 µM
GI50 [17]: 1.23 µM
TGI [17]: > 50 µM
GI50 [18]: 6.06 µM
TGI [18]: 14 µM
GI50 [19]: 1.66 µM
TGI [19]: 6.67 µM
GI50 [20]: 3.3 µM
TGI [20]: 9.54 µM
GI50 [21]: 2.54 µM
TGI [21]: 10.2 µM
GI50 [22]: 0.723 µM
TGI [22]: 4.88 µM
GI50 [23]: 3.79 µM
TGI [23]: 14.8 µM
GI50 [24]: 6.52 µM
TGI [24]: 13.7 µM
GI50 [25]: 4.57 µM
TGI [25]: 33 µM
GI50 [26]: 1.28 µM
TGI [26]: 3.61 µM
GI50 [27]: 0.818 µM
TGI [27]: 2.99 µM
GI50 [28]: 0.884 µM
TGI [28]: 2.19 µM
GI50 [29]: 1.62 µM
TGI [29]: 7.76 µM
GI50 [30]: 1.49 µM
TGI [30]: > 50 µM
GI50 [31]: 1.43 µM
TGI [31]: > 50 µM
GI50 [32]: 2.39 µM
TGI [32]: 9.62 µM
GI50 [33]: 1.2 µM
TGI [33]: 4.14 µM
GI50 [34]: 1.85 µM
TGI [34]: 8.31 µM
GI50 [35]: 2.17 µM
TGI [35]: 18.2 µM
GI50 [36]: 3.51 µM
TGI [36]: 11.3 µM
GI50 [37]: 0.521 µM
TGI [37]: 2.73 µM
GI50 [38]: 3.39 µM
TGI [38]: 24.2 µM
GI50 [39]: 1.62 µM
TGI [39]: 9.2 µM
GI50 [40]: 2.74 µM
TGI [40]: 21.9 µM
GI50 [41]: 4.5 µM
TGI [41]: 11.8 µM
GI50 [42]: 1.23 µM
TGI [42]: 15 µM
GI50 [43]: 1.48 µM
TGI [43]: 7.9 µM
GI50 [44]: 0.797 µM
TGI [44]: 1.59 µM
GI50 [45]: 1.85 µM
TGI [45]: 12.4 µM
GI50 [46]: 1.24 µM
TGI [46]: 6 µM
GI50 [47]: 1.39 µM
TGI [47]: 5.93 µM
GI50 [48]: 1.09 µM
TGI [48]: 4 µM
GI50 [49]: 2.32 µM
TGI [49]: 8.15 µM
GI50 [50]: 4.52 µM
TGI [50]: 11.5 µM
GI50 [51]: 6.55 µM
TGI [51]: 13.2 µM
GI50 [52]: 2.01 µM
TGI [52]: 7.35 µM
GI50 [53]: 2.46 µM
TGI [53]: 10.4 µM
GI50 [54]: 3.39 µM
TGI [54]: 11.2 µM
GI50 [55]: 3.22 µM
TGI [55]: 11.4 µM
GI50 [56]: 1.45 µM
TGI [56]: 4.89 µM
GI50 [57]: 1.41 µM
TGI [57]: 4.02 µM
GI50 [58]: 3.18 µM
TGI [58]: 10.6 µM

CCNc1cc2c3c(c1)CCCN3CCC2
TGI [1]: 63.1 µM
TGI [2]: 40.5 µM
TGI [3]: 50.6 µM
TGI [4]: > 100 µM
TGI [5]: 67.9 µM
TGI [6]: 52.2 µM
TGI [7]: 27.4 µM
TGI [8]: 65.3 µM
TGI [9]: 70.8 µM
TGI [10]: 13.5 µM
TGI [11]: 44.6 µM
TGI [12]: 32.7 µM
TGI [13]: 35.6 µM
TGI [14]: 35 µM
TGI [15]: 22.4 µM
TGI [16]: 49.5 µM
TGI [17]: 6.43 µM
TGI [18]: 28.2 µM
TGI [19]: 63.7 µM
TGI [20]: 37.3 µM
TGI [21]: 41 µM
TGI [22]: 44.4 µM
TGI [24]: 19.1 µM
TGI [25]: 57.1 µM
TGI [59]: 10.9 µM
TGI [26]: 40.5 µM
TGI [27]: 56.4 µM
TGI [28]: 28.4 µM
TGI [29]: 33.3 µM
TGI [30]: 21.6 µM
TGI [31]: 28.3 µM
TGI [32]: 41.9 µM
TGI [33]: 32.3 µM
TGI [34]: 29.8 µM
TGI [35]: 33 µM
TGI [36]: 31.5 µM
TGI [37]: 55.2 µM
TGI [38]: 29.9 µM
TGI [39]: 48.4 µM
TGI [40]: > 100 µM
TGI [41]: 45.1 µM
TGI [42]: 78.5 µM
TGI [43]: 11.2 µM
TGI [44]: 24.7 µM
TGI [45]: 35.9 µM
TGI [46]: 19.2 µM
TGI [47]: 26 µM
TGI [48]: 32.3 µM
TGI [49]: 24.5 µM
TGI [50]: 8.63 µM
TGI [51]: 87.5 µM
TGI [52]: > 100 µM
TGI [53]: > 100 µM
TGI [54]: > 100 µM
TGI [55]: 62.9 µM
TGI [56]: 62.7 µM
TGI [57]: 30 µM
TGI [58]: 21.9 µM

Clc1ccc(/C=N/Nc2nnc3c4ccccc4c4ncccc4c3n2)cc1
TGI [2]: > 10 µM
TGI [3]: > 10 µM
TGI [4]: > 10 µM
TGI [5]: > 10 µM
TGI [7]: > 10 µM
TGI [9]: > 10 µM
TGI [11]: > 10 µM
TGI [12]: > 10 µM
TGI [13]: > 10 µM
TGI [14]: > 10 µM
TGI [15]: > 10 µM
TGI [16]: > 10 µM
TGI [18]: > 10 µM
TGI [19]: > 10 µM
TGI [20]: > 10 µM
TGI [21]: > 10 µM
TGI [25]: > 10 µM
TGI [59]: > 10 µM
TGI [27]: > 10 µM
TGI [28]: > 10 µM
TGI [29]: > 10 µM
TGI [30]: > 10 µM
TGI [31]: > 10 µM
TGI [33]: > 10 µM
TGI [36]: > 10 µM
TGI [37]: > 10 µM
TGI [38]: > 10 µM
TGI [39]: > 10 µM
TGI [40]: > 10 µM
TGI [45]: > 10 µM
TGI [47]: > 10 µM
TGI [49]: > 10 µM
TGI [50]: > 10 µM
TGI [51]: > 10 µM
TGI [52]: > 10 µM
TGI [53]: > 10 µM
TGI [55]: > 10 µM
TGI [58]: > 10 µM

CC(=O)NC(C(=O)N1CCCC1C(=O)OCc1ccccc1)C(C)C (stereo not drawn) (Ac-Val-Pro-OBn; configuration not given here)
GI50 [17]: 52 µg/mL
GI50 [59]: 80.7 µg/mL (≈ 233 µM)
